Tests used:
KRAS G12D [1] = target: T1, KRAS G12D (Homo sapiens, UniProt P01116, G12D); assay: KRAS_G12D pERK assay (cellular pERK HTRF assay); type: cell-based; parameters: host or cells: A427 or HPAF-II; details: KRAS G12D cells (A427, HPAF-II named in method), 2 hours incubation, Phospho-ERK 1/2 HTRF; read-out: G12D_PERK (KRAS_G12D pERK assay IC50)
Description: MIA PaCa-2 (KRAS G12C; ATCC® CRL-1420), A427 (KRAS G12D; ATCC® HTB53), HPAF-II (KRAS G12D; ATCC® CRL-1997) and NCI-H838 (KRAS WT; ATCC® CRL-5844) cells are purchased from ATCC and maintained in RPMI 1640 media supplemented with 10% FBS (Gibco/Life Technologies). The cells are plated at 5000 cells per well (8 uL) into Greiner 384-well low volume, flat-bottom, tissue culture treated white plates and incubated overnight at 37° C., 5% CO2. The next morning, test compound stock solutions are diluted in media at 3× the final concentration, and 4 uL are added to the cells. The plate is mixed by gentle rotation for 30 seconds (250 rpm) at room temperature. The cells are incubated with the KRAS G12C and G12D compounds for 4 hours or 2 hours respectively at 37° C., 5% CO2.
4 uL of 4× lysis buffer with blocking reagent (1:25) (Cisbio) are added to each well and plates are rotated gently (300 rpm) for 30 minutes at room temperature. 4 uL per well of Cisbio anti Phospho-ERK 1/2 d2 is mixed with anti Phospho-ERK 1/2 Cryptate (1:1) are added to each well, mixed by rotation and incubated overnight in the dark at room temperature. Plates are read on the Pherastar plate reader at 665 nm and 620 nm wavelengths. IC50 determination is performed by fitting the curve of inhibitor percent inhibition versus the log of the inhibitor concentration using the GraphPad Prism 7 software.

KRAS G12V = KRAS G12V (Homo sapiens, UniProt P01116, G12V); assay: GDP-GTP exchange assay, KRAS G12V (bodipy-GDP/GppNHp, SOS1); type: biochemical; details: bodipy-loaded KRAS G12V 2.5 nM, 3 hours pre-incubation with inhibitor, SOS1 150 nM, GppNHp 500 uM; read-out: G12V_exchange (KRAS_G12V exchange assay IC50)
Sequence of KRAS G12V (P01116 1-188 isoform P01116-2 G12V): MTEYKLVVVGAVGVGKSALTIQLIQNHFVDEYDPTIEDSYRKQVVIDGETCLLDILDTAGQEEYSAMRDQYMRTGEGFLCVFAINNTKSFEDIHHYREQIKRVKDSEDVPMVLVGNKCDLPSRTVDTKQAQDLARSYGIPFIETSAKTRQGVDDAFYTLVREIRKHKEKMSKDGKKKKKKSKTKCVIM
Description: (§1) The inhibitor potency of the exemplified compounds was determined in a fluorescence based guanine nucleotide exchange assay, which measures the exchange of bodipy-GDP (fluorescently labeled GDP) for GppNHp (Non-hydrolyzable GTP analog) to generate the active state of KRAS in the presence of SOS1 (guanine nucleotide exchange factor). Inhibitors were serially diluted in DMSO and a volume of 0.1 μL was transferred to the wells of a black low volume 384-well plate. Five μL/well volume of bodipy-loaded KRAS G12D or G12V diluted to a final concentration of 2.5 nM in assay buffer (25 mM Hepes pH 7.5, 50 mM NaCl, 10 mM MgCl2 and 0.01% Brij-35) was added to the plate and pre-incubated with inhibitor for 4 hours (G12D) or 3 hours (G12V) at ambient temperature. A cyclic peptide described to selectively bind G12D mutant (Sakamoto et al., BBRC 484.3 (2017), 605-611) or internal compounds with confirmed binding were used as positive controls in the assay plates. The exchange was initiated by the addition of a 5 μL/well volume containing 1 mM GppNHp and 300 nM SOS1 in assay buffer. The 10 μL/well reaction concentration of the bodipy-loaded KRAS G12D or G12V, GppNHp, and SOS1 were 2.5 nM, 500 uM, and 150 nM, respectively.
(§2) Either GraphPad prism or XLfit was used to analyze the data. The IC50 values were derived by fitting the data to a four parameter logistic equation producing a sigmoidal dose-response curve with a variable Hill coefficient. Prism equation: Y=Bottom+(Top−Bottom)/(1+10^((LogIC50-X)*Hill slope)); XLfit equation: Y=(A+((B−A)/(1+((X/C)^D)))) where X is the logarithm of inhibitor concentration and Y is the response.

KRAS G12D [2] = target: T1, KRAS G12D; assay: GDP-GTP exchange assay, KRAS G12D (bodipy-GDP/GppNHp, SOS1); type: biochemical; details: bodipy-loaded KRAS G12D 2.5 nM, 4 hours pre-incubation with inhibitor, SOS1 150 nM, GppNHp 500 uM; read-out: G12D_exchange (KRAS_G12D exchange assay IC50)
Description: as §1, §2

T1 sequence (P01116 1-188 isoform P01116-2 G12D): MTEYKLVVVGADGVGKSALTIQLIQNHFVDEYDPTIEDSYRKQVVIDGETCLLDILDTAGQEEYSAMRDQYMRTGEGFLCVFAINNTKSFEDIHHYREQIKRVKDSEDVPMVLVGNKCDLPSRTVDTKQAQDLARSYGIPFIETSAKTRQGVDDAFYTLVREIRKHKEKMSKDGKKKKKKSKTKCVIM

IC50 (KRAS G12D [1]) | IC50 (KRAS G12V) | IC50 (KRAS G12D [2]) | Compound
100 to 1000 nM | ≤ 100 nM | ≤ 100 nM | C[C@H](Oc1nc2c(F)c(-c3cccc(Cl)c3Cl)c(CCC#N)cc2c2c1c(=O)c(-c1cnn(C)c1)cn2[C@H]1[C@H]2CN[C@@H]1C2)[C@@H]1CCCN1C (single isomer, unassigned) [Example 24b]
5000 to 10000 nM | 100 to 1000 nM | ≤ 100 nM | Cc1cc2c(nc(O[C@@H](C)[C@@H]3CCCN3C)c3c(=O)c(Nc4cnn(C)c4)cn([C@H]4[C@H]5CN[C@@H]4C5)c32)c(F)c1-c1cccc2c1C(C#N)CCC2 (single isomer, unassigned) [Example 26b]
≤ 100 nM | ≤ 100 nM | ≤ 100 nM | Cc1cc2c(nc(O[C@@H](C)[C@@H]3CCCN3C)c3c(=O)ccn([C@H]4[C@H]5CN[C@@H]4C5)c32)c(F)c1-c1cccc2c1C(C#N)CCC2 (stereo partly drawn) [Example 23, 8-(1-((1R,4R,5S)-2-azabicyclo[2.1.1]hexan-5-yl)-7-fluoro-9-methyl-5-((S)-1-((S)-1-methylpyrrolidin-2-yl)ethoxy)-4-oxo-1,4-dihydrobenzo[h][1,6]naphthyridin-8-yl)-1,2,3,4-tetrahydronaphthalene-1-carbonitrile]

From patent US12030883B2, “Hetero-tricyclic compounds as inhibitors of KRAS” (Incyte Corporation, priority 2021, dated 2024)
